Here are results for one compound from patent US6274146A, “Biologically active phytogenous proteoglycan and a method of making thereof” (priority 1999, dated 2001).

For this experiment, the system named is 1-st type of simple virus herpes, Kleiman strain. In words: Herpetic meningoencephalitis model in mice. The format is in vivo, white mice. Particulars: for Lethality rate / ML (mean lifespan) / Protective effect (difference between survival rates in experimental and control groups) / Survival rate: introduced 3, 24, 48, 72 and 96 h after infecting. The method, then:
Proteoglycan efficiency was estimated by means of herpetic menigeoencephalitis model in mice. The 1-st type of simple virus herpes of Kleiman strained was used. The virus infectuous titer in Vero cells culture was of 6.5-7.01 1 g CPA50^1 /0.1 ml while by intracerebral or intraperitonneal introduction in white mice mass of 7-8 g it was equal to 5.5-6.0 1 g LD50 /0.03 ml. The strain is characterized by increased neurovirulence. The maximum lesion of cells of fibroblasts in hen embryons or of Vero cells (75-100%) was already observed in 18-20 h after infecting. To reproduce herpetic meningoencephalitis in mice the latter were infected with Kleiman virus intraperitonneally in volume of 0.2 ml of both 10 and 100 LD50 doses. The treatment results were estimated as a mean lifespan (ML) and the protective effect which is difference between survival rates in experimental and control groups.
*-proteoglycan was introduced 5 days before infecting
**-proteoglycan was introduced 5 days until infecting and 3 h after the
** Acyclovir was introduced in 3, 24, 48, 72 and 96 h after the infecting.

As to `Nc1nc2c(ncn2COCCO)c(=O)[nH]1` [Acyclovir], for the setting “10 LD50 virus dose”, the Lethality rate is recorded as 68%; the “ML (mean lifespan)” value is given as 7.81 ± 1.9 days; the “Protective effect (difference between survival rates in experimental and control groups)” value amounted to 15%; the Survival rate is on record as 32%. For the setting “100 LD50 virus dose”, the Effect observed entry is listed as “no effect was observed”; the Lethality rate stood at 100%; the “ML (mean lifespan)” value is on record as 5.3 ± 1.8 days; the “Protective effect (difference between survival rates in experimental and control groups)” value is 0%. Where the note is “100 LD50 virus dose”, the Survival rate stood at 0%.
